From patent US12528792B2, “Sulfonamide compounds and the use thereof in the treatment of cancer” (TROBIO THERAPEUTICS PTY LTD, priority 2019, dated 2026)

Columns and labels:
Format in all cases: cell-based
[1] = tested on: A2780 (ovarian) cells; test: Anti-proliferative activity, Cell-Titre luminescent viability assay; settings: Homo sapiens, 72 h exposure, Cell-Titre luminescent reagent
In short: (§1)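 Cells attached 24 h at 37° C., 5% CO2, then treated 72 h with compound at 0.3–100 μM or 0.1–30 μM. Viability read by Cell-Titre luminescence after 30 min reagent exposure, normalized to vehicle; EC50 from variable-slope sigmoidal nonlinear regression.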

[2] = tested on: A549 (NSCLC) cells; test: as above; settings: Homo sapiens, 72 h exposure, Cell-Titre luminescent reagent
In short: as §1

[3] = tested on: SK-N-SH neuroblastoma cells; test: Cytotoxicity assay, MTS viability; settings: Homo sapiens, 72 hours
Procedure: The ability of compounds of the disclosure to inhibit the proliferation of SK—N—SH neuroblastoma cells was assessed. The SK—N—SH cell line was maintained as a monolayer in Dulbeccos Modified Eagles medium (DMEM) supplemented with 10% foetal bovine serum (FBS) and grown at 37° C. in a humidified atmosphere with 5% CO2. For the cytotoxicity assay, SK—N—SH cells were seeded at a density of 2×10^3 cells per well in 96-well plates. The cells were treated with serial dilutions of the test compounds (1:2 starting concentration 100 µM) and viability measured after 72 hours using a standard MTS assay. Cell viability was normalised to control (vehicle alone) and dose response curves and EC50 values (Table 3) were determined using Graph Pad Prism 6.

Compound | IC50 [1] [µM] | IC50 [2] [µM] | IC50 [3] [µM]
CC(C)c1cccc(NC(=O)c2ccn(S(=O)(=O)c3ccc4[nH]ccc4c3)c2)c1 [Compound 38, 1-((1H-indol-5-yl)sulfonyl)-N-(3-isopropylphenyl)-1H-pyrrole-3-carboxamide] | 6.7 | 5.4 | 12
CC(C)c1ccc(NC(=O)c2ccn(S(=O)(=O)c3ccc4[nH]ccc4c3)n2)cc1F [Compound 108, 1-((1H-indol-5-yl)sulfonyl)-N-(3-fluoro-4-isopropylphenyl)-1H-pyrazole-3-carboxamide] | 8.71 | 4.09 | 9.71
Cc1ccc(NC(=O)c2ccn(S(=O)(=O)c3ccc4[nH]ccc4c3)c2)cc1O [Compound 25, 1-((1H-indol-5-yl)sulfonyl)-N-(3-hydroxy-4-methylphenyl)-1H-pyrrole-3-carboxamide] | > 100 | > 100 | 30
Cc1ccc(NC(=O)c2ccn(S(=O)(=O)c3ccc4c(c3)CCN4)c2)cc1O [Compound 22, N-(3-hydroxy-4-methylphenyl)-1-(indolin-5-ylsulfonyl)-1H-pyrrole-3-carboxamide] | > 100 | > 100 | 57.6
CC(C)(C)c1ccc(NC(=O)c2ccn(S(=O)(=O)c3ccc4[nH]ccc4c3)n2)cc1 [Compound 113, 1-((1H-indol-5-yl)sulfonyl)-N-(4-(tert-butyl)phenyl)-1H-pyrazole-3-carboxamide] | 8.37 | 7.22 | 9.41
CC(C)c1ccc(NC(=O)c2ccn(S(=O)(=O)c3ccc4[nH]ccc4c3)n2)cc1 [Compound 107, 1-((1H-indol-5-yl)sulfonyl)-N-(4-isopropylphenyl)-1H-pyrazole-3-carboxamide] | 8.11 | 6.58 | 6.22
Cc1ccc(NC(=O)N2CCN(S(=O)(=O)c3ccc4[nH]ccc4c3)CC2)cc1O [Compound 16, 4-((1H-indol-5-yl)sulfonyl)-N-(3-hydroxy-4-methylphenyl)piperazine-1-carboxamide] | 28.8 | 17.3 | 31.5
O=C(Nc1ccc(C(F)(F)F)cc1)N1CCN(S(=O)(=O)c2ccc3[nH]ccc3c2)CC1 [Compound 17, 4-((1H-indol-5-yl)sulfonyl)-N-(4-(trifluoromethyl)phenyl)piperazine-1-carboxamide] | 13.9 | 6.5 | 22.9
O=C(Nc1ccc(Cl)c(Cl)c1)c1ccn(S(=O)(=O)c2ccc3[nH]ccc3c2)n1 [Compound 83, 1-((1H-indol-5-yl)sulfonyl)-N-(3,4-dichlorophenyl)-1H-pyrazole-3-carboxamide] | 9.31 | 14.3 | 13.1
CCC(C)c1ccc(NC(=O)N2CCN(S(=O)(=O)c3ccc4[nH]ccc4c3)CC2)cc1 (stereo not drawn) [Compound 15, 4-((1H-indol-5-yl)sulfonyl)-N-(4-(sec-butyl)phenyl)piperazine-1-carboxamide] | 22.3 | 25.8 | 14.9
CC(C)(C)c1ccc(NC(=O)c2ccn(S(=O)(=O)c3ccc4[nH]ccc4c3)c2)cc1 [Compound 100, 1-((1H-indol-5-yl)sulfonyl)-N-(4-(tert-butyl)phenyl)-1H-pyrrole-3-carboxamide] | 8.87 | 11 | 7.51
Cn1cc(S(=O)(=O)N2CCC(C(=O)Nc3ccc(C(F)(F)F)cc3)CC2)cc1C(N)=O [Compound 2, 1-((5-carbamoyl-1-methyl-1H-pyrrol-3-yl)sulfonyl)-N-(4-(trifluoromethyl)phenyl)piperidine-4-carboxamide] | 13.9 | 33.7 | 26.4
CCCc1ccc(NC(=O)c2ccn(S(=O)(=O)c3ccc4[nH]ccc4c3)c2)cc1 [Compound 96, 1-((1H-indol-5-yl)sulfonyl)-N-(4-propylphenyl)-1H-pyrrole-3-carboxamide] | 8.85 | 12.8 | 12.2

The next molecules have a lower IC50 [1] than those just listed; values first:

IC50 [1] [µM] | IC50 [2] [µM] | Compound | IC50 [3] [µM]
5.4 | 3.2 | CCC(C)c1ccc(CCC2CCN(S(=O)(=O)c3cc(C(N)=O)n(C)c3)CC2)cc1 (stereo not drawn) [Compound 34, 4-((4-(4-(sec-butyl)phenethyl)piperidin-1-yl)sulfonyl)-1-methyl-1H-pyrrole-2-carboxamide] | 46.2
1.6 | 2.3 | O=C(Nc1ccccc1C(F)(F)F)c1ccn(S(=O)(=O)c2ccc3[nH]ccc3c2)c1 [Compound 47, 1-((1H-indol-5-yl)sulfonyl)-N-(2-(trifluoromethyl)phenyl)-1H-pyrrole-3-carboxamide] | 27.8
2.8 | 6.7 | CC(C)(C)c1ccc(S(=O)(=O)n2ccc(C(=O)NCCc3ccc(F)cc3)c2)cc1 [Compound 89, 1-((4-(tert-butyl)phenyl)sulfonyl)-N-(4-fluorophenethyl)-1H-pyrrole-3-carboxamide] | 15.6
2.2 | 3.6 | CCC(C)c1cccc(NC(=O)c2ccn(S(=O)(=O)c3ccc4[nH]ccc4c3)c2)c1 (stereo not drawn) [Compound 35, 1-((1H-indol-5-yl)sulfonyl)-N-(3-(sec-butyl)phenyl)-1H-pyrrole-3-carboxamide] | 6.81
1.1 | 12.8 | CCc1cccc(NC(=O)c2ccn(S(=O)(=O)c3ccc4[nH]ccc4c3)c2)c1 [Compound 41, 1-((1H-indol-5-yl)sulfonyl)-N-(3-ethylphenyl)-1H-pyrrole-3-carboxamide] | 16.2
3.8 | 3.9 | CCC(C)c1ccc(NC(=O)c2ccn(S(=O)(=O)c3cnc4[nH]ccc4c3)c2)cc1 (stereo not drawn) [Compound 60, 1-((1H-pyrrolo[2,3-b]pyridin-5-yl)sulfonyl)-N-(4-(sec-butyl)phenyl)-1H-pyrrole-3-carboxamide] | 13.2
3.2 | 12.8 | CC(C)(C)c1ccc(S(=O)(=O)n2ccc(C(=O)Nc3ccc(C(F)(F)F)cc3)c2)cc1 [Compound 93, 1-((4-(tert-butyl)phenyl)sulfonyl)-N-(4-(trifluoromethyl)phenyl)-1H-pyrrole-3-carboxamide] | 18.2
